Read-outs that look alike come from different tables or passages of the source.
Legend:
Type in all cases: cell-based, human
HL-60 = assay: Cytotoxicity test (ViaLight Plus cell proliferation) on HL-60; settings: 72 hours' incubation, cell viability vs 0.5% DMSO control; for IC50: Homo sapiens, read-out: EC50 HL-60
From the text: (§1) The effects of the compounds of the invention on the proliferation of cancer cells were studied on different human cancer cell lines of different tissue origin (MCF-7: breast cancer, MCF-7/adr adriamycin-resistant breast cancer, HL-60: acute promyelocytic leukaemia, HL-60/R10: doxorubicin-resistant acute promyelocytic leukaemia, HT29: colon adenocarcinoma, Mia Paca2: pancreatic tumour, Panc-1: pancreatic exocrine tumour, SK-OV-3: cisplatin- and adriamycin resistant ovarian cancer). The cancer cells used for this study were incubated at 37° C. in the presence of one of the compounds of the invention added to the culture medium at different concentrations.
(§2) The cancer cell lines were obtained from ATCC (American Type Culture Collection) for MCF-7, from Hôpital de la Pitié Salpetrière for MCF-7/adr and from Oncodesign (Dijon, France) for HL-60, HL-60/R10, HT29, MiaPaCa2, Panc-1 and SK-OV-3. They were cultured in RPMI 1640 medium containing 2 mM L-Glutamine supplemented with 10% foetal calf serum (Lonza; Verviers, Belgium). All the cell lines were held in culture at 37° C. in a humid atmosphere containing 5% CO2. Cell proliferation was assessed using the ViaLight® Plus Assay Kit (Lonza; Verviers, Belgium) following the manufacturer's instructions. The cells were seeded in 96-well culture plates compatible with luminescence read-off (white plates with transparent bottom) in a proportion of 5 000 to 10 000 cells per well in 100 μl of culture medium. After a pre-incubation time of 24 hours at 37° C., the compounds of the invention dissolved in dimethylsulfoxide (DMSO) were individually added to each well in a proportion of 0.5 μl per well. After 72 hours' incubation at 37° C. in a humid atmosphere containing 5% CO2, 50 μl of lysis buffer were added to each well and 15 minutes later 100 μl of ATP measuring agent were added. The plates were read under a luminometer to evaluate cell viability. The data obtained was processed by computer to obtain the EC50 value i.e. the concentration value of each of the compounds which induces 50% cell viability compared with a control value (0.5% DMSO alone).

MCF-7 = assay: Cytotoxicity test (ViaLight Plus cell proliferation) on MCF-7; settings: 72 hours' incubation, cell viability vs 0.5% DMSO control
From the text: as §1, §2

MCF-7/adr = assay: Cytotoxicity test (ViaLight Plus cell proliferation) on MCF-7/adr; settings: adriamycin-resistant line, 72 hours' incubation, cell viability vs 0.5% DMSO control
From the text: as §1, §2

HL-60/R10 = assay: Cytotoxicity test (ViaLight Plus cell proliferation) on HL-60/R10; settings: doxorubicin-resistant line, 72 hours' incubation, cell viability vs 0.5% DMSO control, read-out: EC50 HL60/R10; for IC50: Homo sapiens
From the text: as §1, §2

Row | Compound | EC50 (HL-60) [nM] | EC50 (MCF-7/adr) [nM] | EC50 (HL-60/R10) [nM] | further results
1 | CC(C)[C@H]1CN(C(=O)C(c2ccc(F)cc2)N(C(=O)CCl)c2ccc(Oc3ccccc3)cc2)CCN1 (single isomer, unassigned) [I-3 dia1] | 1310 | 55 | 15 | EC50 (MCF-7): 927 nM
2 | CC(C)[C@@H]1CN(C(=O)C(c2ccc(F)cc2)N(C(=O)CCl)c2ccc(Oc3ccccc3)cc2)CCN1 (single isomer, unassigned) [I-4 dia1] | 648 | 13 | 4 | EC50 (MCF-7): 315 nM
3 | CC(C)[C@@H]1CN(C(=O)C(c2ccc(F)cc2)N(C(=O)CCl)c2ccc(Oc3ccccc3)cc2)CCN1 (single isomer, unassigned) [I-4 dia2] | 1320 | 166 | 62 | EC50 (MCF-7): 863 nM
4 | Cc1cc(Oc2ccccc2)ccc1N(C(=O)CCl)C(C(=O)N1CCN[C@@H](C(C)C)C1)c1ccc(F)cc1 (single isomer, unassigned) [I-7 dia1] |  | 618 | 604 | IC50 (HL-60; HL-60, 72 h): 2500 nM; IC50 (MCF-7; Homo sapiens, MCF7, 72 h, read-out: EC50 MCF-7): 2500 nM
5 | CC[C@@H]1CN(C(=O)C(c2ccc(F)cc2)N(C(=O)CCl)c2ccc(Oc3ccccc3)cc2C)CCN1C(=O)OC(C)(C)C (single isomer, unassigned; dia1) [I-16 dia1] | 1480 | 527 | 450 | 
6 | CC[C@H]1CN(C(=O)C(c2ccc(F)cc2)N(C(=O)CCl)c2ccc(Oc3ccccc3)cc2C)CCN1 (single isomer, unassigned; dia1) [I-17 dia1] | 2310 | 898 | 353 | 
7 | CC[C@@H]1CN(C(=O)C(c2ccc(F)cc2)N(C(=O)CCl)c2ccc(Oc3ccccc3)cc2C)CCN1 (single isomer, unassigned; dia1) [I-18 dia1] | 1600 | 485 | 140 | 
8 | CC[C@H]1CN(C(=O)C(c2ccc(F)cc2)N(C(=O)CCl)c2ccc(Oc3ccccc3)cc2)CCN1C(=O)OC(C)(C)C (single isomer, unassigned; dia1) [I-19 dia1] | 516 | 128 | 97 | 
9 | Cc1cc(CCC(C)(C)C)ccc1N(C(=O)CCl)C(C(=O)N1CCNC(C(C)C)C1)c1ccc(F)cc1 (single isomer, unassigned; dia1) [I-25 dia1] | 1120 |  | 43 | 
10 | Cc1cc(Oc2ccccc2)ccc1N(C(=O)CCl)C(C(=O)N1CCN(C(=O)OC(C)(C)C)[C@H](C)C1)c1cccs1 (single isomer, unassigned; dia1) [I-40 dia1] | 2130 | 371 | 248 | 
11 | Cc1cc(Oc2ccccc2)ccc1N(C(=O)CCl)C(C(=O)N1CCN[C@@H](C(C)C)C1)c1cccs1 (single isomer, unassigned; dia1) [I-46 dia1] |  | 544 | 318 | 
12 | Cc1cc(Oc2ccccc2)ccc1N(C(=O)CCl)C(C(=O)N1CCN[C@@H](CC(C)C)C1)c1cccs1 (single isomer, unassigned; dia1) [I-47 dia1] | 936 |  | 54 | 
13 | CC(C)[C@H]1CN(C(=O)C(c2cccs2)N(C(=O)CCl)c2cccc(C(F)(F)F)c2)CCN1 (single isomer, unassigned; dia1) [I-50 dia1] | 2100 |  | 259 | 
14 | CC(C)C[C@H]1CN(C(=O)C(c2cccs2)N(C(=O)CCl)c2ccc(Oc3ccccc3)cc2)CCN1 (single isomer, unassigned; dia1) [I-51 dia1] | 145 |  | 96 | 
15 | Cc1cc(Cl)ccc1N(C(=O)CCl)C(C(=O)N1CCN[C@@H](C(C)C)C1)c1cccs1 (single isomer, unassigned; dia1) [I-52 dia1] |  |  | 194 | 
16 | CC[C@@H]1CN(C(=O)C(c2ccc(F)cc2)N(C(=O)CCl)c2ccc(Oc3ccccc3)cc2C)CCN1C(=O)OC(C)(C)C (single isomer, unassigned; dia2) [I-16 dia2] | 1910 | 443 | 317 | 
17 | CC[C@H]1CN(C(=O)C(c2ccc(F)cc2)N(C(=O)CCl)c2ccc(Oc3ccccc3)cc2)CCN1C(=O)OC(C)(C)C (single isomer, unassigned; dia2) [I-19 dia2] | 453 | 35 | 24 | 
18 | CC[C@@H]1CN(C(=O)C(c2ccc(F)cc2)N(C(=O)CCl)c2ccc(Oc3ccccc3)cc2)CCN1C(=O)OC(C)(C)C (single isomer, unassigned; dia2) [I-20 dia2] | 1480 | 165 | 139 | 

Row | Compound | EC50 (HL-60) [nM] | EC50 (MCF-7/adr) [nM] | EC50 (HL-60/R10) [nM] | further results
19 | Cc1cc(CCC(C)(C)C)ccc1N(C(=O)CCl)C(C(=O)N1CCNC(C(C)C)C1)c1ccc(F)cc1 (single isomer, unassigned; dia2) [I-25 dia2] | 819 |  | 103 | 
20 | Cc1cc(Oc2ccccc2)ccc1N(C(=O)CCl)C(C(=O)N1CCN(C(=O)OC(C)(C)C)[C@H](C)C1)c1cccs1 (single isomer, unassigned; dia2) [I-40 dia2] |  | 827 | 487 | 
21 | Cc1cc(Oc2ccccc2)ccc1N(C(=O)CCl)C(C(=O)N1CCN[C@@H](CC(C)C)C1)c1cccs1 (single isomer, unassigned; dia2) [I-47 dia2] | 849 |  | 8 | 
22 | CC(C)C[C@H]1CN(C(=O)C(c2cccs2)N(C(=O)CCl)c2ccc(Oc3ccccc3)cc2)CCN1 (single isomer, unassigned; dia2) [I-51 dia2] | 3 |  | 1 | 
23 | Cc1cc(Cl)ccc1N(C(=O)CCl)C(C(=O)N1CCN[C@@H](C(C)C)C1)c1cccs1 (single isomer, unassigned; dia2) [I-52 dia2] | 223 |  | 24 | 
24 | Cc1cc(Oc2ccccc2)ccc1N(C(=O)CCl)C(C(=O)N1CCN(C(=O)OC(C)(C)C)C(C(=O)NCc2ccccc2)C1)c1cccs1 (single isomer, unassigned; dia2) [I-53 dia2] | 547 |  | 305 | 
25 | Cc1cc(CCC(C)(C)C)ccc1N(C(=O)CCl)C(C(=O)N1CCN[C@@H](C(C)C)C1)c1ccc(F)cc1 (stereo partly shown) [Example I-23] |  |  |  | IC50 (HL-60; HL-60, 72 h): 559 nM; IC50 (HL-60/R10; HL-60, 72 h): 12 nM
26 | Cc1cc(CCC(C)(C)C)ccc1N(C(=O)CCl)C(C(=O)N1C[C@@H](C)N[C@@H](C)C1)c1ccc(F)cc1 (stereo partly shown) [Example I-24] |  |  |  | IC50 (HL-60; HL-60, 72 h): 626 nM; IC50 (HL-60/R10; HL-60, 72 h): 15 nM
27 | CC1CN(C(=O)C(c2cccs2)N(C(=O)CCl)c2cccc(C(F)(F)F)c2)CC(C)N1C(=O)OC(C)(C)C (stereo not shown) [Example I-28] |  |  |  | IC50 (HL-60; HL-60, 72 h): 623 nM; IC50 (HL-60/R10; HL-60, 72 h): 206 nM
28 | Cc1cc(Oc2ccccc2)ccc1N(C(=O)CCl)C(C(=O)N1CCN2CCC[C@H]2C1)c1cccs1 (stereo partly shown) [Example I-33] |  | 394 | 157 | 
29 | C[C@@H]1CN(C(=O)[C@H](c2cccs2)N(C(=O)CCl)c2ccc(Oc3ccccc3)cc2)C[C@H](C)N1 [Example I-44] | 215 |  | 7 | 
30 | Cc1cc(Oc2ccccc2)ccc1N(C(=O)CCl)C(C(=O)N1CCNC(c2ccccc2)C1)c1cccs1 (stereo not shown) [Example I-45] |  |  |  | IC50 (HL-60; HL-60, 72 h): 2140 nM; IC50 (HL-60/R10; HL-60, 72 h): 17 nM
31 | Cc1cc(Oc2ccccc2)ccc1N(C(=O)CCl)C(C(=O)N1CCNC(Cc2ccccc2)C1)c1cccs1 (stereo not shown) [Example I-48] |  |  |  | IC50 (HL-60; HL-60, 72 h): 1990 nM; IC50 (HL-60/R10; HL-60, 72 h): 10 nM
32 | Cc1cc(Cl)ccc1N(C(=O)CCl)C(C(=O)N1C[C@@H](C)N[C@@H](C)C1)c1cccs1 (stereo partly shown) [Example I-49] |  |  |  | IC50 (HL-60; HL-60, 72 h): 1170 nM; IC50 (HL-60/R10; HL-60, 72 h): 321 nM
33 | Cc1cc(Oc2ccccc2)ccc1N(C(=O)CCl)C(C(=O)N1CCNCC1)c1ccc(F)cc1 (stereo not shown) [reference compound] |  |  |  | IC50 (HL-60; HL-60, 72 h): 1630 nM; IC50 (HL-60/R10; HL-60, 72 h): 226 nM
34 | C[C@@H]1CNCCN1C(=O)C(c1cccs1)N(C(=O)CCl)c1ccc(Oc2ccccc2)cc1 (stereo partly shown) [reference compound] |  |  |  | IC50 (HL-60; HL-60): 311 nM; IC50 (HL-60/R10; HL-60): 38 nM
35 | tert-butyl ester of 4-[2-[(2-chloro-acetyl)-(4-phenoxy-phenyl)-amino]-2-(4-fluoro-phenyl)-acetyl]-(S)-2-isopropyl-piperazine-1-carboxylic acid [I-1 dia1] | 1800 | 338 |  | 
36 | tert-butyl ester of 4-[-2-[(2-chloro-acetyl)-(4-phenoxy-phenyl)-amino]-2-(4-fluoro-phenyl)-acetyl]-(R)-2-isopropyl-piperazine-1-carboxylic acid [I-2 dia2] | 2060 | 645 | 472 | 

Reference: US9877962B2, “Piperazinyl derivatives for the treatment of cancer” (priority 2011, dated 2018)
